For test [1], the system named is Tyrosine-protein kinase ABL1 (Homo sapiens), P00519 [H396P]. Description: Inhibition of human non-phosphorylated ABL1 H396P mutant (S229 to K512 residues) expressed in mammalian expression system at 1 uM by Kinomescan method relative to control.
Test [2] has as its target Serine/threonine-protein kinase BRSK1 (Homo sapiens) (UniProt Q8TDC3). Description: Inhibition of wild-type human partial length BRSK1 (M1 to E754 residues) expressed in bacterial expression system at 1 uM by Kinomescan method relative to control.
In test [3] the target is Serine/threonine-protein kinase BRSK2 (Homo sapiens) (UniProt Q8IWQ3). The test is described as follows: Inhibition of wild-type human full length BRSK2 (M1 to L674 residues) expressed in bacterial expression system at 1 uM by Kinomescan method relative to control.
The target in test [4] is CDK4/Cyclin D3 (Homo sapiens) (UniProt P11802+P30281). The test is described as follows: Inhibition of wild-type human full length CDK4/cyclinD3 (M1 to E303 residues) expressed in mammalian expression system at 1 uM by Kinomescan method relative to control.
Test [5] addresses Ephrin type-B receptor 2 (Homo sapiens) (UniProt P29323). The test is described as follows: Inhibition of wild-type human partial length EPHB2 (I597 to L902 residues) expressed in bacterial expression system at 1 uM by Kinomescan method relative to control.
Test [6] concerns the target Mitogen-activated protein kinase 3 (Homo sapiens) (UniProt P27361). The test is described as follows: Inhibition of wild-type human full length ERK1 (M1 to P379 residues) expressed in bacterial expression system at 1 uM by Kinomescan method relative to control.
Test [7] has as its target Vascular endothelial growth factor receptor 3 (Homo sapiens) (UniProt P35916). Description: Inhibition of wild-type human partial length FLT4 (E821 to E1196 residues) expressed in bacterial expression system at 1 uM by Kinomescan method relative to control.
Test [8] addresses Cyclin-G-associated kinase (Homo sapiens) (UniProt O14976). The test is described as follows: Inhibition of wild-type human partial length GAK (G13 to Y338 residues) expressed in bacterial expression system at 1 uM by Kinomescan method relative to control.
The target of test [9] is Mitogen-activated protein kinase kinase kinase 13 (Homo sapiens) (UniProt O43283). Description: Inhibition of wild-type human full length LZK (M1 to W966 residues) expressed in mammalian expression system at 1 uM by Kinomescan method relative to control.
Test [10] addresses Serine/threonine-protein kinase 4 (Homo sapiens) (UniProt Q13043). The test is described as follows: Inhibition of wild-type human full length MST1 (M1 to F487 residues) expressed in bacterial expression system at 1 uM by Kinomescan method relative to control.
Test [11] has as its target Cyclin-dependent kinase 2 homolog (Plasmodium falciparum (isolate 3D7)) (UniProt P61075). Description: Inhibition of wild-type Plasmodium falciparum full length PK5 (M1 to N288 residues) expressed in mammalian expression system at 1 uM by Kinomescan method relative to control.
The target of test [12] is Serine/threonine-protein kinase SIK2 (Homo sapiens) (UniProt Q9H0K1). Description: Inhibition of wild-type human full length SIK2 (M1 to N926 residues) expressed in bacterial expression system at 1 uM by Kinomescan method relative to control.
In test [13] the target is Serine/threonine-protein kinase WNK2 (Homo sapiens) (UniProt Q9Y3S1). Description: Inhibition of wild-type human partial length WNK2 (V47 to D482 residues) expressed in mammalian expression system at 1 uM by Kinomescan method relative to control.
Test [14] addresses Serine/threonine-protein kinase 32C (Homo sapiens) (UniProt Q86UX6). Description: Inhibition of wild-type human partial length YANK3 (M68 to G486 residues) expressed in bacterial expression system at 1 uM by Kinomescan method relative to control.
Test [15] has as its system Tyrosine-protein kinase ABL1 (Homo sapiens), P00519 [Y253F]. The test is described as follows: Inhibition of human phosphorylated ABL1 Y253F mutant (S229 to K512 residues) expressed in mammalian expression system at 10 uM by Kinomescan method relative to control.
Test [16] concerns the target Calcium/calmodulin-dependent protein kinase kinase 1 (Homo sapiens) (UniProt Q8N5S9). The test is described as follows: Inhibition of wild-type human partial length CAMKK1 (R65 to E414 residues) expressed in bacterial expression system at 10 uM by Kinomescan method relative to control.
Test [17] concerns the target Cyclin-dependent kinase 4/cyclin D1 (Homo sapiens) (UniProt P11802+P24385). Description: Inhibition of wild-type human full length CDK4/cyclinD1 (M1 to E303 residues) expressed in mammalian expression system at 10 uM by Kinomescan method relative to control.
In test [18] the target is Myotonin-protein kinase (Homo sapiens) (UniProt Q09013). Description: Inhibition of wild-type human partial length DMPK (V47 to V415 residues) expressed in bacterial expression system at 10 uM by Kinomescan method relative to control.
The target of test [19] is Fibroblast growth factor receptor 1 (Homo sapiens) (UniProt P11362). The test is described as follows: Inhibition of wild-type human partial length FGFR1 (P357 to V669 residues) expressed in bacterial expression system at 10 uM by Kinomescan method relative to control.
In test [20] the target is Tyrosine-protein kinase FRK (Homo sapiens) (UniProt P42685). The test is described as follows: Inhibition of wild-type human partial length FRK (A215 to F503 residues) expressed in bacterial expression system at 10 uM by Kinomescan method relative to control.
Test [21] deals with Mitogen-activated protein kinase kinase kinase 2 (Homo sapiens) (UniProt Q9Y2U5). Description: Inhibition of wild-type human partial length MAP3K2 (S315 to H619 residues) expressed in mammalian expression system at 10 uM by Kinomescan method relative to control.
Test [22] addresses Mitogen-activated protein kinase kinase kinase kinase 5 (Homo sapiens) (UniProt Q9Y4K4). Description: Inhibition of wild-type human partial length MAP4K5 (M1 to P297 residues) expressed in bacterial expression system at 10 uM by Kinomescan method relative to control.
Test [23] addresses Mitogen-activated protein kinase kinase kinase 9 (Homo sapiens) (UniProt P80192). Description: Inhibition of wild-type human partial length MLK1 (V88 to W426 residues) expressed in bacterial expression system at 10 uM by Kinomescan method relative to control.
Test [24] concerns the target Serine/threonine-protein kinase NIM1 (Homo sapiens) (UniProt Q8IY84). The test is described as follows: Inhibition of wild-type human partial length NIM1 (Q44 to N355 residues) expressed in mammalian expression system at 10 uM by Kinomescan method relative to control.
Test [25] deals with Serine/threonine-protein kinase PAK 5 (Homo sapiens) (UniProt Q9P286). Description: Inhibition of wild-type human partial length PAK7 (Y400 to H719 residues) expressed in bacterial expression system at 10 uM by Kinomescan method relative to control.
In test [26] the target is Rho-associated protein kinase 1 (Homo sapiens) (UniProt Q13464). The test is described as follows: Inhibition of wild-type human partial length ROCK1 (M1 to R415 residues) expressed in mammalian expression system at 10 uM by Kinomescan method relative to control.
Test [27] addresses Serine/threonine-protein kinase tousled-like 1 (Homo sapiens) (UniProt Q9UKI8). The test is described as follows: Inhibition of wild-type human partial length TLK1 (K447 to A754 residues) expressed in bacterial expression system at 10 uM by Kinomescan method relative to control.

Chain of Rho-associated protein kinase 1 (Homo sapiens) (Q13464 2-1354 limits assumed): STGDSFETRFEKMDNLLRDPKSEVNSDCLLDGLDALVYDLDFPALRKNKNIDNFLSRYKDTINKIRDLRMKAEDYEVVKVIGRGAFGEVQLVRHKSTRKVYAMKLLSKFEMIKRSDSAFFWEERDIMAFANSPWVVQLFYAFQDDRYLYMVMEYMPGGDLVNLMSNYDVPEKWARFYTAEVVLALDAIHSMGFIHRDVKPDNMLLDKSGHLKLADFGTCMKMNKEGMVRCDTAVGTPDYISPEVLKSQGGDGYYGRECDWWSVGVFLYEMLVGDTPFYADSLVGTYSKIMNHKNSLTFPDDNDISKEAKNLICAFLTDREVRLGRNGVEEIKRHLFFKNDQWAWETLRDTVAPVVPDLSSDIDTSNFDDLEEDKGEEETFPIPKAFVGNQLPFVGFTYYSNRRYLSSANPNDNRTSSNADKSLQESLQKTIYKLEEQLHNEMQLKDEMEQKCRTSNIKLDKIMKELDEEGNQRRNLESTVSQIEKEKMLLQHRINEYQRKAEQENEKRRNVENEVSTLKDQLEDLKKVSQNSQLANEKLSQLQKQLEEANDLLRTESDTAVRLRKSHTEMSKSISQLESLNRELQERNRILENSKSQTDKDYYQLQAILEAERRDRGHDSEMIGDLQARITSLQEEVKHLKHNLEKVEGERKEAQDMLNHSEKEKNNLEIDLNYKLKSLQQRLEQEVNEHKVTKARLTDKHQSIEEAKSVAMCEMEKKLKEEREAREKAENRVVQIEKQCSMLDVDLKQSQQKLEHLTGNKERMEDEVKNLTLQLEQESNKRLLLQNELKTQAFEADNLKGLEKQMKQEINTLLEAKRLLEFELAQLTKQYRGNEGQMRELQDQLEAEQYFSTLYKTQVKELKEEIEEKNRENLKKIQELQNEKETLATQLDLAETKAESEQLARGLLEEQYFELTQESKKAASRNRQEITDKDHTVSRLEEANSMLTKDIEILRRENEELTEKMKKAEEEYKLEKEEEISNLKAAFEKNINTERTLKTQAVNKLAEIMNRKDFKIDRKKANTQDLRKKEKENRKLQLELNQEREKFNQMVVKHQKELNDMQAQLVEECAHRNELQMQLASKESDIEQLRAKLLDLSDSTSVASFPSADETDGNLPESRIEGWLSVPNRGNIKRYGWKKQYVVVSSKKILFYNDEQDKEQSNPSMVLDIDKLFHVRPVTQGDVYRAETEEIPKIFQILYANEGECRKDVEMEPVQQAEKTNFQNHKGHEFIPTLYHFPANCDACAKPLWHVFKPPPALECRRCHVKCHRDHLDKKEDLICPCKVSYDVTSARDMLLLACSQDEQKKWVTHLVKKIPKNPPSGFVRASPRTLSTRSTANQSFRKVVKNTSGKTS
Chain of Mitogen-activated protein kinase 3 (Homo sapiens) (P27361 whole entry, the tested form may be a part): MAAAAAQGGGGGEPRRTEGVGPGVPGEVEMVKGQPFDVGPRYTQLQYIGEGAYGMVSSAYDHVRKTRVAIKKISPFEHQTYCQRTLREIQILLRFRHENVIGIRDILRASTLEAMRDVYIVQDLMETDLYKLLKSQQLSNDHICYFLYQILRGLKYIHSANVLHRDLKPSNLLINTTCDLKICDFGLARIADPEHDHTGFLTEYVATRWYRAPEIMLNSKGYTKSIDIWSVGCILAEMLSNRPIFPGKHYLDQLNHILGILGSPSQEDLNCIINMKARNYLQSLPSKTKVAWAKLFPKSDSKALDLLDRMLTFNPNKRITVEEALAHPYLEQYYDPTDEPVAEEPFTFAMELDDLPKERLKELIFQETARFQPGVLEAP
Chain of Serine/threonine-protein kinase PAK 5 (Homo sapiens) (Q9P286 whole entry, looked up, the tested form may be a part): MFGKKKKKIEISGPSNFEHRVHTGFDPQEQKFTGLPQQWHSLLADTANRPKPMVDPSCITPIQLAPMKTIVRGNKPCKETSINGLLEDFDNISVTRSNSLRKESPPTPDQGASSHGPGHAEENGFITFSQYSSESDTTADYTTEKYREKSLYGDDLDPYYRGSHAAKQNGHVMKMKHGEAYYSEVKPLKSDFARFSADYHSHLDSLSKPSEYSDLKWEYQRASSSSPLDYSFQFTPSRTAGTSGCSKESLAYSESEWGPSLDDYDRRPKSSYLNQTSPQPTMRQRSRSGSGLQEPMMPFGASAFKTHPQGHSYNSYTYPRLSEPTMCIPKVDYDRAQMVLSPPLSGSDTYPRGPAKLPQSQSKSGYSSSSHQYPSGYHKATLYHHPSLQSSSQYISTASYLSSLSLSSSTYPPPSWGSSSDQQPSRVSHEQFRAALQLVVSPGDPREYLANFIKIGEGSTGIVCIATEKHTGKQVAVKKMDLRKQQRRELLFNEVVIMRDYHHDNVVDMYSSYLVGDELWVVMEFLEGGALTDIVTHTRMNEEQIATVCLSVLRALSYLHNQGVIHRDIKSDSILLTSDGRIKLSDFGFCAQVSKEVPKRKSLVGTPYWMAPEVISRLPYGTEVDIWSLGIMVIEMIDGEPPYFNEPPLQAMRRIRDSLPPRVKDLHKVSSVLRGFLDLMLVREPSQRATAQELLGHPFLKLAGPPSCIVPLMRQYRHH
Chain of Serine/threonine-protein kinase 4 (Homo sapiens) (Q13043 whole entry, the tested form may be a part): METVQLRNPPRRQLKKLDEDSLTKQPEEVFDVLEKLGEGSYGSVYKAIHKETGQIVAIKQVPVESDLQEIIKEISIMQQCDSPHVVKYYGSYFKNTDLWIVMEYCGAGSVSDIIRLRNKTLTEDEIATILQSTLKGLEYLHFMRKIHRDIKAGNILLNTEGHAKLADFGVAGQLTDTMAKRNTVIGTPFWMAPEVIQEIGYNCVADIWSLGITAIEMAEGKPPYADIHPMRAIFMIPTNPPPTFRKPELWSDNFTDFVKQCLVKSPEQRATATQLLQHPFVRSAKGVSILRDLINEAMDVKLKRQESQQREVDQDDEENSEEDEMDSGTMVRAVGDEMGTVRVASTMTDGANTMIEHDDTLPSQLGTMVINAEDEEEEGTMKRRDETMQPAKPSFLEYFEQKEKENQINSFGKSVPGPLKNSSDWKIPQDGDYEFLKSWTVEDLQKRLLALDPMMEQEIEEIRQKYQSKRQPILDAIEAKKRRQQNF
Chain of Serine/threonine-protein kinase tousled-like 1 (Homo sapiens) (Q9UKI8 whole entry, the tested form may be a part): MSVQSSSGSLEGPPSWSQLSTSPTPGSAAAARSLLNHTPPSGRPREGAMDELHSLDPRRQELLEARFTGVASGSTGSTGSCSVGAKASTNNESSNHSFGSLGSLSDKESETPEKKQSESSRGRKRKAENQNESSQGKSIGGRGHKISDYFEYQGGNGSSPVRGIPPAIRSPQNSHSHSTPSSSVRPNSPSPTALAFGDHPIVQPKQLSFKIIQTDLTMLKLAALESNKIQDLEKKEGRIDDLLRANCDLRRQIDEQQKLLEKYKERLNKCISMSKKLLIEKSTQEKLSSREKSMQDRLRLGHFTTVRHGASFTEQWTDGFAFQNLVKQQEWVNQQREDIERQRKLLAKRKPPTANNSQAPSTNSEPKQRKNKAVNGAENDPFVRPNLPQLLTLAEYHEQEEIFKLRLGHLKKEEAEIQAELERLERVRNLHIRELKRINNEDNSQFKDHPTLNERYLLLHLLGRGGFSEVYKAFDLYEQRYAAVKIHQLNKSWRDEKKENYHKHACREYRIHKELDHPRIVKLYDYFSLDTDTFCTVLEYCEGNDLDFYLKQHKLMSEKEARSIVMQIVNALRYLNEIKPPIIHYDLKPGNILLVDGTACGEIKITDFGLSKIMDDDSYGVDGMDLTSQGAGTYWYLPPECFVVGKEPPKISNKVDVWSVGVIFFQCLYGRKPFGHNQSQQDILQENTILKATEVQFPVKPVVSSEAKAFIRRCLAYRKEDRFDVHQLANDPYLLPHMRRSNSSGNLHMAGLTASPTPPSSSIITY
Chain of Serine/threonine-protein kinase BRSK2 (Homo sapiens) (Q8IWQ3 whole entry, the tested form may be a part): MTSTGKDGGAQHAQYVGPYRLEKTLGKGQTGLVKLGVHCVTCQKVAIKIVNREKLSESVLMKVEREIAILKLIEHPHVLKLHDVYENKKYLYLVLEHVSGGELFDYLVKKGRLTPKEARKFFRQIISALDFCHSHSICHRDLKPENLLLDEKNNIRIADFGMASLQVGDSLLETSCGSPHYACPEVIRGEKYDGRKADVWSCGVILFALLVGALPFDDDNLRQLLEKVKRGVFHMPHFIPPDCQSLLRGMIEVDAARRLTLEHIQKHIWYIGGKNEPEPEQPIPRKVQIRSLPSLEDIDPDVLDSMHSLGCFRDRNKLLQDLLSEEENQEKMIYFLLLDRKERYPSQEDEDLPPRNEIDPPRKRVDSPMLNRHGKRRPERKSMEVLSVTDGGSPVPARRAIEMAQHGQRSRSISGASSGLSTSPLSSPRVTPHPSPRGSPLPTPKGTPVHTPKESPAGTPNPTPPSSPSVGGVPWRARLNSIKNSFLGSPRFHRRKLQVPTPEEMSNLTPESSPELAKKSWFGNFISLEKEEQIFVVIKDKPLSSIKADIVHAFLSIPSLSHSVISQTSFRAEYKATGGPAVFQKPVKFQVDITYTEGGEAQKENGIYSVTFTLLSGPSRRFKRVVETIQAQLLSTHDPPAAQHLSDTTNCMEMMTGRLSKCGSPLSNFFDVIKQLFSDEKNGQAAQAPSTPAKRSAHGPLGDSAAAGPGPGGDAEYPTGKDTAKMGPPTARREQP
Chain of Serine/threonine-protein kinase 32C (Homo sapiens) (Q86UX6 whole entry, the tested form may be a part): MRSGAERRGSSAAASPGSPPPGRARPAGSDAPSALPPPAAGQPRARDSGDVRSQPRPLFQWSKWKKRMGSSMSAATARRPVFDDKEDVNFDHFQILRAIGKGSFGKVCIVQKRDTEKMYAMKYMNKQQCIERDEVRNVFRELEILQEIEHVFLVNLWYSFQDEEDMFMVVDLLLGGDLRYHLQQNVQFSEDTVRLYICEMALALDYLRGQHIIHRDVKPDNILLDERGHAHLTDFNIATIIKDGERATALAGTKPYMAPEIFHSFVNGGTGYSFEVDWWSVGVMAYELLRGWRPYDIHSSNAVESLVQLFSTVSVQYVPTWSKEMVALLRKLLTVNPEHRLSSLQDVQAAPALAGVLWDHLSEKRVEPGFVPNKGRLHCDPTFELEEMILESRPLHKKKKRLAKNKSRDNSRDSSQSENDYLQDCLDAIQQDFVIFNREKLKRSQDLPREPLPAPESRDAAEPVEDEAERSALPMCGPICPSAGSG

Take `O=C(Nc1cccc([C@@H]2CN(c3ncnc4[nH]ccc34)CCN2CCO)c1)Nc1c(F)cccc1N1CCCC1`: the inhibition (in general, the drop in the measured response relative to a control, in per cent) in [1] came out at 96%; in test [2] it was 100%; in test [3] it was 98%; in test [4] it was 100%; in test [5], 85%; in [6], 100%. The inhibition in test [7] is 16%; in test [8], 96%; in [9] it was 100%; in test [10] it was 78%; in [11], 100%; in [12], 93%. Besides, the inhibition in test [13] was found to be 99%; in [14] it was 100%.

Consider `O=C(Nc1cccc([C@H]2CCCN(c3ncnc4[nH]ccc34)C2)c1)Nc1ccccc1N1CCCC1`, for which the inhibition in [15] is 74%; in [16] it was 82%; in test [17], 74%; in test [18], 100%; in test [19], 36%; in test [20], 96%. Also, the inhibition in [21] turned out to be 27%; in [22], 30%; in test [23], 59%; in [24] it was 75%; in [25], 69%; in test [26], 46%. In [27], this compound came in with an inhibition of 78%.
